{
  "source": "patent US12629394B2",
  "about": "“Atlas of Choroid Plexus cell types and therapeutic and diagnostic uses thereof” (The Broad Institute, Inc., priority 2019, dated 2026)",
  "key": {"[1]": {"system": "choroid plexus in vitro", "assay": "In vitro incubation of choroid plexus with MTX: ROS, mitochondria, SOD", "type": "cell-based, rodent", "protocol": "(§1) Optimized assays for evaluating redox homeostasis and oxidative damage to cells, lipids, and DNA and found chemotherapy (MTX)-induced oxidative damage in human neurons in vitro and in rodent brain in vivo, and rodent ChP in vitro and in vivo was performed (FIG. 4; data not shown)."}, "[2]": {"system": "human iPSC cortical neurons", "assay": "MTX exposure of cultured human cortical neurons (iPSCs): oxidative stress and damage", "type": "cell-based", "protocol": "(§2) AAV2/5-SOD3 or control AAV2/5-GFP was injected into embryonic (E) 13.5 mouse lateral ventricles, and offspring were raised to 4-6 weeks of age. Applicants quantified choroid plexus-SOD3 expression (qRT-PCR), CSF-SOD protein levels (immunoblotting), and CSF-anti-oxidant capacity (ELISA). In parallel, Applicants tested if Methotrexate (MTX) exposure induced signatures of oxidative damage in cultured human cortical neurons (iPSCs), in patient CSF, and in vivo rodent brain. To test if supplemental choroid plexus-SOD3 protects the brain from acute oxidative stress, intravenous MTX was administered to mice previously transduced with AAV2/5-SOD3 or control AAV2/5-GFP, and analyzed cortex, hippocampus, and corpus callosum for markers of oxidative damage 48 hours later.\nas §1"}, "[3]": {"system": "choroid plexus, CSF", "assay": "Intravenous MTX in rats: ChP and CSF antioxidants", "type": "in vivo, rat"}, "[4]": {"system": "CSF-SOD, CSF antioxidant capacity", "assay": "Patient CSF after MTX: SOD expression and antioxidant capacity", "type": "in vivo, human", "protocol": "as §2, §1"}, "[5]": {"system": "choroid plexus, CSF, brain", "assay": "Intravenous MTX in mice: ChP and CSF antioxidants, oxidative damage", "type": "in vivo, mouse", "protocol": "as §2"}, "[6]": {"system": "CSF-SOD, CSF antioxidant capacity", "details": "despite thiol supplementation (e.g. Leucovorin); cited from earlier work"}, "[7]": {"details": "mouse, MTX 4 mg/kg i.v., evaluation at 48 hours"}},
  "note": "“Also recorded” adds a separate entry of the source.",
  "data": [
    {"compound": "CN(Cc1cnc2nc(N)nc(N)c2n1)c1ccc(C(=O)N[C@@H](CCC(=O)O)C(=O)O)cc1", "note": "[MTX, Methotrexate]", "values": [
      {"measurement": "SOD expression and secretion", "setting": "[1]; in vitro", "value": "decreases SOD expression and secretion"},
      {"measurement": "mitochondrial respiration in choroid plexus", "setting": "[1]; in vitro", "value": "impairs mitochondrial respiration"},
      {"measurement": "ROS production in ChP", "setting": "[1]; in vitro incubation", "value": "inducing ROS production"},
      {"measurement": "mitochondrial membrane potential in ChP", "setting": "[1]; in vitro incubation", "value": "alters mitochondrial membrane potential"},
      {"measurement": "oxidative stress in human iPSC cortical neurons", "setting": "[2]; MTX 10 uM", "value": "triggers oxidative stress"},
      {"measurement": "oxidative stress / markers of oxidative damage in cultured human neurons", "setting": "[2]; human iPSC-derived neurons", "value": "induces oxidative stress; also recorded: induced markers of oxidative damage"},
      {"measurement": "antioxidant availability in CSF", "setting": "[3]", "value": "reduced antioxidant availability in CSF"},
      {"measurement": "choroid plexus anti-oxidant gene transcription", "setting": "[3]", "value": "decreased choroid plexus anti-oxidant gene transcription"},
      {"measurement": "CSF-SOD expression levels after vs. before treatment", "setting": "[4]; Primary CNS lymphoma patient, high dose MTX, sample 1B vs. pre-treatment 1A", "value": "reduced CSF-SOD expression levels"},
      {"measurement": "antioxidant capacity of human CSF", "setting": "[4]; human CSF", "value": "diminishes antioxidant capacity"},
      {"measurement": "markers of oxidative damage in patient CSF", "setting": "[4]; patient CSF", "value": "induced markers of oxidative damage"},
      {"measurement": "markers of oxidative damage in rodent brain", "setting": "[5]; in vivo rodent brain", "value": "induced markers of oxidative damage"},
      {"measurement": "antioxidant availability in CSF", "setting": "[5]; mice, intravenous MTX", "value": "reduced antioxidant availability in CSF"},
      {"measurement": "choroid plexus anti-oxidant gene transcription", "setting": "[5]; mice, intravenous MTX", "value": "decreased choroid plexus anti-oxidant gene transcription"},
      {"measurement": "SOD expression in vivo (CSF Sod3, SOD activity)", "setting": "[5]; [7]", "value": "decreases SOD expression"},
      {"measurement": "oxidative damage in vivo (8-OHdG)", "setting": "[5]; [7]", "value": "increases oxidative damage"},
      {"measurement": "anti-oxidant capacity of CSF from patients receiving chemotherapeutics", "setting": "[6]", "value": "reduced anti-oxidant capacity"}
    ]}
  ]
}
